These results are taken from PMC2952885 (ChemMedChem, 2009).

Molecules are shown by their SMILES.

The target in this experiment is PDE7A1 catalytic domain (residues 130–482) (Homo sapiens, UniProt Q13946). The experiment is described as follows: [3H]cAMP hydrolysis radioassay. The experiment is classed as biochemical.
Sequence of PDE7A1 catalytic domain (residues 130–482) (Q13946 130-482): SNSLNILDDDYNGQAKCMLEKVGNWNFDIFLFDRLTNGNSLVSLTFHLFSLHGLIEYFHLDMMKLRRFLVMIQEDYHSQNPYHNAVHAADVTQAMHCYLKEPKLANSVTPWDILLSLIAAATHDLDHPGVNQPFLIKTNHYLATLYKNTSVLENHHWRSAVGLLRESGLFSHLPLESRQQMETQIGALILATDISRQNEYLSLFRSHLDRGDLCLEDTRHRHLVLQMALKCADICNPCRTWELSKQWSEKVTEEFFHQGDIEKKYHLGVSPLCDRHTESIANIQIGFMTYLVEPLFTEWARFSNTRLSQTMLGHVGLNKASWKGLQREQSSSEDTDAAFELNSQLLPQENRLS
In general, IC50 refers to the concentration that inhibits the measured activity by half. The low end stands for higher potency, the high end for lower potency. Compound `CSc1nc2c(sc3ccccc32)c(=O)n1-c1c(F)cccc1F` [compound 39, 3-(2,6-Difluorophenyl)-2-methylthio-4-oxo-3,4-dihydrobenzo-[4,5]thieno[3,2-d]pyrimidine] yielded an IC50 of 0.41 ± 0.03 µM.
`CSc1nc2ccsc2c(=O)n1-c1c(F)cccc1F` [compound 36, 3-(2,6-Difluorophenyl)-2-methylthio-4-oxo-3,4-dihydrothieno-[3,2-d]pyrimidine] came in with a half-maximal inhibitory concentration (IC50) of 0.8 ± 0.2 µM.
For `CC(C)Cn1c(=O)n(C)c(=O)c2[nH]cnc21` [IBMX, reference compound] the value was 8.1 ± 0.4 µM; for `CSc1nc2ccsc2c(=O)n1-c1ccccc1` [compound 35, 2-Methylthio-4-oxo-3-phenyl-3,4-dihydrothieno[3,2-d]pyrimidine], about 10 µM.
As for `COc1ccc(C2CNC(=O)C2)cc1OC1CCCC1` (centres unmarked) [Rolipram, reference compound], 129 ± 10 µM corresponded to half-maximal inhibition (IC50).
